From ChEMBL document CHEMBL1201862, “PubChem BioAssay data set” (2004)
The source made the active and inactive calls.

What was measured:
[1] = cytotoxicity toward NIH3T3 fibroblasts, dose response, counter-screen, cell-based, ATP luminescence, mouse fibroblasts (AID 2010); assay type: functional;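 note: cells exposed to compound for about 90 hours before reading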
[2] = target: Serine/threonine-protein phosphatase PP1-alpha catalytic subunit (Homo sapiens, UniProt P62136); assay: PP1 phosphatase inhibitors, dose response, biochemical, fluorescence (AID 2403);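 note: phosphatase turnover of OMFP into fluorescent 3-O-methylfluorescein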
[3] = cells; assay type: functional, cell-based
[4] = target: Photoreceptor-specific nuclear receptor (Homo sapiens, UniProt Q9Y5X4); assay type: functional, cell-based;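 note: CHO-S cells with Gal4-NCOR and VP16-NR2E3 two-hybrid luciferase reporter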
[5] = inhibitors of intracellular T. cruzi replication, confirmation, NIH3T3 host cells, beta-gal luminescence (AID 2044); assay type: functional, cell-based;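 note: intracellular parasites grown in NIH/3T3 mouse fibroblasts as host cells; luminescent beta-galactosidase reporter signal from transgenic T. cruzi replicating inside host cells; inhibitors lower the luminescence signal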
[6] = cells; assay type: functional, cell-based; remark: listed apart in the source
[7] = HeLa cell cytotoxicity, dose response, cytotoxicity control, CellTiter-Glo luminescence, dry powder, set 2 (AID 720593); assay type: functional, cell-based
[8] = tested on: INS1; assay: beta cell apoptosis inhibitors, cytokine rescue, dose response, luminescence, retest (AID 449756); assay type: functional, cell-based; conditions: Rattus norvegicus;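 note: cell death triggered by IL-1 beta plus TNF-alpha plus IFN-gamma mixture; protective hits raise ATP signal compared with cytokine alone wells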
[9] = target: Nonstructural protein 1 (Influenza A virus, UniProt Q194T2); assay type: functional, Influenza A virus (A/California/07/2009(H1N1))
[10] = tested on: Streptococcus sp. 'group A'; assay: growth inhibition of control SK(-) GAS strain, dose response, counter-screen for streptokinase expression inhibitor project, luminescence, kanamycin, BacTiterGlo, confirmation (AID 1900); assay type: functional, organism-based
[11] = target: Serine/threonine-protein phosphatase (Homo sapiens, UniProt Q9BPW0); assay: Counterscreen for inhibitors of PP1: fluorescence-based biochemical high throughput dose response assay to identify inhibitors of Protein Phosphatase 5 (PP5). [Related pubchem assays: 2034 (Summary (PP5 inhibitors)), 1987 (PP5 inhibitors in singlate), 2235 (PP1 inhibitors in singlate)]
[12] = tested on: Streptococcus; assay: Group A Streptococcus viability loss, dose response, counter-screen for streptokinase expression inhibitor project, luminescence, BacTiterGlo (AID 1915); assay type: functional, organism-based;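 note: potency for reduction of bacterial viability or growth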
[13] = target: Large T antigen (Simian virus 40, UniProt P03070); assay type: functional, Betapolyomavirus macacae;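 note: Confirmatory-stage PubChem screen for compounds that inhibit SV40 T antigen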
[14] = HepG2 cell cytotoxicity, dose response, cytotoxicity control, ATP luminescence, cherry-pick, set 6 (AID 1053125); assay type: functional, cell-based
[15] = cells; conditions: A549
[16] = cells; conditions: HEK293
[17] = cells
[18] = target: Fructose-bisphosphate aldolase (Mycobacterium tuberculosis, UniProt P9WQA3); assay: Fluorescence-based biochemical high throughput dose response assay for inhibitors of the fructose-bisphosphate aldolase (FBA) of M. tuberculosis.; assay type: functional
[19] = Counterscreen for inhibitors of Trypanosoma brucei methionyl tRNA synthetase (MetRS): Luminescence-based cell-based high throughput dose response assay to identify compounds that are cytotoxic to Jurkat human T lymphocyte cells.; assay type: functional
[20] = target: T1, Methionyl-tRNA synthetase, putative (Trypanosoma brucei brucei, UniProt Q38C91); assay type: functional, Trypanosoma brucei brucei strain 927/4 GUTat10.1
T1 sequence (Q38C91 whole entry): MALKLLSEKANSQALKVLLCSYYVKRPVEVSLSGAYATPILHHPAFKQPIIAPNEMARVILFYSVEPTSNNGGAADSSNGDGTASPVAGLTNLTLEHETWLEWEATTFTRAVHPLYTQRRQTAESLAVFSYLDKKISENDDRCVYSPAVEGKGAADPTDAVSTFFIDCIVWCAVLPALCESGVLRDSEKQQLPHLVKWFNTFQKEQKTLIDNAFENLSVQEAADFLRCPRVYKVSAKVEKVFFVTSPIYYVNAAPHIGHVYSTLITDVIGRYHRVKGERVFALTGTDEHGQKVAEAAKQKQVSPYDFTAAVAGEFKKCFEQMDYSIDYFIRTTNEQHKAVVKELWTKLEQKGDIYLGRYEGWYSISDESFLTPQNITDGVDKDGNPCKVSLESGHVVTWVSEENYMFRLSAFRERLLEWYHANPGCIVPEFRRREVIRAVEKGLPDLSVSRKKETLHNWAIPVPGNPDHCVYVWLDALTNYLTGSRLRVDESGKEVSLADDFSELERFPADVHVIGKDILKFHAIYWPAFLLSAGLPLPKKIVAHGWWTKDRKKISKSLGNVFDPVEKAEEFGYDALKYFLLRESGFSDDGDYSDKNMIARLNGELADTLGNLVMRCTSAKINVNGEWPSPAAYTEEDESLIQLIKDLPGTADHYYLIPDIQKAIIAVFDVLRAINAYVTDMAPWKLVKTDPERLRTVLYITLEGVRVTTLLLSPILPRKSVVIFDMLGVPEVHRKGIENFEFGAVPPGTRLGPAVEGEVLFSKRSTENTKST

[21] = Late stage counterscreen for inhibitors of Trypanosoma brucei methionyl tRNA synthetase (MetRS): Luminescence-based cell-based high throughput dose response assay to identify compounds that are cytotoxic to Jurkat human T lymphocyte cells.; assay type: functional
[22] = target: T1, Methionyl-tRNA synthetase, putative; assay type: functional, Trypanosoma brucei brucei strain 927/4 GUTat10.1; remark: listed apart in the source
[23] = control 3'UTR Renilla luciferase suppression, dose response, counter-screen for Shn3 inhibitor project, cell-based, Clone20-Shn3RL, cherry-picked (AID 624133); assay type: functional
[24] = Shn3 3'UTR reporter inhibitors, dose response, cell-based, Clone20 osteoblasts, firefly luciferase, cherry-picked (AID 624132); assay type: functional;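 note: firefly luciferase luminescence from reporter carrying the Shn3 3'UTR in osteoblasts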
[25] = HepG2 cell cytotoxicity, dose response, cytotoxicity control for Shn3 inhibitor project, CellTiter-Glo, cherry-picked (AID 624134); assay type: functional, cell-based
[26] = reduction of Shn3 3'UTR firefly luciferase signal, dose response, Schnurri-3 inhibitor project, cell-based, Clone20 osteoblasts, cherry-pick, set 2 (AID 720490); assay type: functional;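 note: actives lower the luminescence signal as inhibitors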
[27] = target: T2, Low molecular weight phosphotyrosine protein phosphatase (Homo sapiens, UniProt P24666); assay type: functional; conditions: read-out: IC50_Mean
T2 sequence (P24666 whole entry): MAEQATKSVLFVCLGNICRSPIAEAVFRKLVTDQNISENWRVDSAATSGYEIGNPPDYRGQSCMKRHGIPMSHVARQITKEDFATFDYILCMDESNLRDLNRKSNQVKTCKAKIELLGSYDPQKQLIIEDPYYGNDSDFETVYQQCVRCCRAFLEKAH

[28] = inhibitors of control Renilla luciferase reporter, dose response, counter-screen for Shn3 3'UTR targeting project, Clone20-Shn3RL cells, dual-Glo, cherry-pick, set 2 (AID 720724); assay type: functional, cell-based; conditions: Dual-Go Shn3RL
[29] = target: T2, Low molecular weight phosphotyrosine protein phosphatase; assay type: functional; conditions: read-out: IC50_Mean; remark: listed apart in the source
[30] = HEK293T cytotoxicity, dose response, cytotoxicity control for miR-122 modulator project, cell-based, activator set, cherry-pick (AID 720690); assay type: functional;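 note: HEK293T human cells scored for general mammalian cytotoxicity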
[31] = HEK293T cytotoxicity, dose response, cytotoxicity control for miR-122 modulator project, cell-based, inhibitor set, cherry-pick, set 2 (AID 720697); assay type: functional
[32] = miR-122 activators in hepatoma reporter cells, dose response, cell-based, Huh7 psiCHECK-miR122, Renilla luciferase, cherry-picked (AID 651956); assay type: functional;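 note: huh7 hepatoma cells stably carrying a psiCHECK-2 miR-122 sensor plasmid; renilla luciferase signal reporting endogenous miR-122 activity after 48 h compound exposure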

Photoreceptor-specific nuclear receptor, sequence (Q9Y5X4 whole entry, the tested form may be a part): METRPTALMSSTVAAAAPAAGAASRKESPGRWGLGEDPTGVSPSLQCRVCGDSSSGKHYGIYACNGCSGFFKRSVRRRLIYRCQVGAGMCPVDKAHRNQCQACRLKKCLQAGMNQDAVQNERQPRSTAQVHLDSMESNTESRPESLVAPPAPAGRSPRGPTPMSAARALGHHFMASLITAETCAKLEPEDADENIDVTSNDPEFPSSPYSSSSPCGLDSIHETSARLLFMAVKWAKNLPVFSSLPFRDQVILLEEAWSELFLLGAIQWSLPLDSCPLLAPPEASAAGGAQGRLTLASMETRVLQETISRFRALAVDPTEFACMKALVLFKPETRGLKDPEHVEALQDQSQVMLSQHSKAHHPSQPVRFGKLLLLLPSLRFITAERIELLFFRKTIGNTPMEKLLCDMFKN
Serine/threonine-protein phosphatase, sequence (Q9BPW0 whole entry): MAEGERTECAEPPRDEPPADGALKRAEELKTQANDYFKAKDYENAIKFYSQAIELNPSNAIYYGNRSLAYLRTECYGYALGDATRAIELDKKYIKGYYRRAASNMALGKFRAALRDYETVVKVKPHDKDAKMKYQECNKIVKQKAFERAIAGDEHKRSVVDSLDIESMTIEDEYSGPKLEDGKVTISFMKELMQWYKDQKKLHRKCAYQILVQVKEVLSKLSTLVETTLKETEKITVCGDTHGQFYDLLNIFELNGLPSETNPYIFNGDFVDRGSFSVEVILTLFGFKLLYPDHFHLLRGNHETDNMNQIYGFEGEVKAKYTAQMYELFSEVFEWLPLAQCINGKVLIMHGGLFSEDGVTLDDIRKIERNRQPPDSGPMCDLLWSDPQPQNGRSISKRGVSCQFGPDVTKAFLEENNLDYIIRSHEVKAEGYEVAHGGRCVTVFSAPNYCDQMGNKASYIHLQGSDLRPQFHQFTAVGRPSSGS
Nonstructural protein 1, sequence (Q194T2 whole entry): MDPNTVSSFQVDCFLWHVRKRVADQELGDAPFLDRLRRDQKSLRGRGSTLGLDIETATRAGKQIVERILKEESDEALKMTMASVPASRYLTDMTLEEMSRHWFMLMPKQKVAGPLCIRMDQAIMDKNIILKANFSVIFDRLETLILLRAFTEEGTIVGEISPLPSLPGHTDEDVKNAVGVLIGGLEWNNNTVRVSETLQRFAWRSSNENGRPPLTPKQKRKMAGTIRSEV
Serine/threonine-protein phosphatase PP1-alpha catalytic subunit, sequence (P62136 whole entry): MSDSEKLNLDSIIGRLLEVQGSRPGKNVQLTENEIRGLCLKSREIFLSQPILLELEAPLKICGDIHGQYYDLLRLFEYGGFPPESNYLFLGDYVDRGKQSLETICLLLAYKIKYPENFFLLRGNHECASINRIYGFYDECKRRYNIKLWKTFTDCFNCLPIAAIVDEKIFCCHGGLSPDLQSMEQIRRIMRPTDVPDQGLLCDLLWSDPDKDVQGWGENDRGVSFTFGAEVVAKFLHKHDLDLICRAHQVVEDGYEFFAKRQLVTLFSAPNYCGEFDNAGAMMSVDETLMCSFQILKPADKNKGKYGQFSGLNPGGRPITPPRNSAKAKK
Fructose-bisphosphate aldolase, sequence (P9WQA3 whole entry): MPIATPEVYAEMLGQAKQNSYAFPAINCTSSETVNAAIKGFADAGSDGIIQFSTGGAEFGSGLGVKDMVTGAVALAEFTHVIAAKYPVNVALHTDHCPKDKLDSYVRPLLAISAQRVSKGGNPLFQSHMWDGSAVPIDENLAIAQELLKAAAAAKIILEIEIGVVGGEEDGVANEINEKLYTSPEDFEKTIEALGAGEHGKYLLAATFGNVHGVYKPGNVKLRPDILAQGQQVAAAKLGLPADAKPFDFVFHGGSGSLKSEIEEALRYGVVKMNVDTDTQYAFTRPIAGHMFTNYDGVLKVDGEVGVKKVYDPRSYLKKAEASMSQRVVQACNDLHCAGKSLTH
Large T antigen, sequence (P03070 whole entry): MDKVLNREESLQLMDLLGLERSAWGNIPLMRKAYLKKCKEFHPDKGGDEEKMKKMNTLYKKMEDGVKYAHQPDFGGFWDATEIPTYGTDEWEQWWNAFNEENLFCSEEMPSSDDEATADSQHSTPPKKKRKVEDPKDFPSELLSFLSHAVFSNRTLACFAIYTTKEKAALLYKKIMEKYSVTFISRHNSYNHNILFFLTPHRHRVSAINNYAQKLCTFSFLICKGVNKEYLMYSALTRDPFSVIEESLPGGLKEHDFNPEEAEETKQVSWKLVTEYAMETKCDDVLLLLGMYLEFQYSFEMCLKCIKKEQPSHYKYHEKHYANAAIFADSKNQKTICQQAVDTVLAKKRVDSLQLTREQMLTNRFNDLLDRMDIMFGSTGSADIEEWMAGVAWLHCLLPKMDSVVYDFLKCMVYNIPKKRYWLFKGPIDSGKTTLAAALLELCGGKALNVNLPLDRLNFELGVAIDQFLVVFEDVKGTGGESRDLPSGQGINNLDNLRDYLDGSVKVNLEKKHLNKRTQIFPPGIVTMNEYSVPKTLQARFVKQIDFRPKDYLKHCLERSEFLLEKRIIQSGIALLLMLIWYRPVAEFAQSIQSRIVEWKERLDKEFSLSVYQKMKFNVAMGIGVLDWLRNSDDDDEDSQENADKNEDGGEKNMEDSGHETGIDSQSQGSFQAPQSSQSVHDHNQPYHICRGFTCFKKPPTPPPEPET

## Nc1nc(-c2ccccn2)nc(N)c1Cc1ccc(Cl)cc1Cl
[1]
  EC50: < 6 µM (inconclusive)
[2]
  IC50: 8.64 µM (active)
[3]
  EC50: 13.9 µM (active)
[4]
  IC50: 4.53 µM (active)
[5]
  EC50: 1.26 µM (active)
[6]
  EC50: > 350 µM (not active)
[7]
  AC50: > 52 µM (inactive)
[8]
  AC50: 4.55 µM (active)
[9]
  IC50: 5.11 µM (active)
[10]
  EC50: 3.52 µM (active)
[11]
  IC50: 47.5 µM (not active)
[12]
  EC50: 13.5 µM (active)

## O=C(c1ccccc1)N1CCN(c2ccc(NCc3ccc4c(c3)OCO4)cc2)CC1
[13]
  IC50: > 100 µM (active)
[14]
  AC50: > 52 µM (inactive)
[15]
  AC50: > 52 µM (inactive)
[16]
  AC50: 20.2 µM (active)

## CCN(CC)CCNC(=O)c1sc2nc(-c3ccccc3)cn2c1C
[17]
  AC50: 57 µM (active)

## Cc1ccc(-c2cnc(-c3ccccc3C(=O)O)o2)cc1
[18]
  IC50: 0.919 µM (active)

## O=C(N/C(=C\c1cccnc1)c1nc2ccccc2[nH]1)c1cccc(Br)c1
[19]
  IC50: 83.3 µM (inactive)
[20]
  IC50: 4.56 µM (active)
[21]
  IC50: > 83.3 µM (inactive)
[22]
  IC50: 8.16 µM (active)

## COCCNc1nc(NCc2ccc(C(C)C)cc2)c2sccc2n1
[23]
  AC50: 17.5 µM (active)
[24]
  AC50: 3.95 µM (active)
[25]
  AC50: 47.4 µM (active)
[26]
  AC50: 3 µM (active)
[27]
  IC50: 13 µM (active)
[28]
  AC50: 33.2 µM (active)
[29]
  IC50: 24.5 µM (inactive)

## CN1C(=O)c2cc(NC(=O)c3ccc(C(F)(F)F)cc3)ccc2OC[C@H]2O[C@H](CC(=O)NCc3ccc4c(c3)OCO4)CC[C@H]21
[30]
  AC50: 28.4 µM (active)
[31]
  AC50: 0.571 µM (active)
[32]
  AC50: 12.3 µM (active)
